From US9115092B2, “Substituted quinazoline and pyrido-pyrimidine derivatives” (Asana Biosciences, LLC, priority 2010, dated 2015)

Key:
[1] = molecular target: T1, PI3Kα (wild-type), P110/P85α (Homo sapiens, UniProt P42336); test: PI3 Kinase TR-FRET assay, PI3Kα (wild-type); assay type: biochemical
T1 construct: made in house; host or cells: SF9 insect cells
Procedure: The ability of compounds of the invention to inhibit PI3K activity was determined in a homogeneous TR-FRET assay using a PI3K assay kit (Millipore, USA; cat #33-016) according to manufacturer's instructions. PI3-Kinases (isoforms α, β, γ and δ) catalyze the phosphorylation of phosphatidylinositol, PIP2 to PIP3 in the presence of ATP and Mg^2+. The PIP3 product is detected by displacement of biotin-PIP3 from an energy transfer complex consisting of Europium labeled anti-GST monoclonal antibody, a GST-tagged PH domain, biotinylated PIP3 and Streptavidin-APC. Excitation of Europium in the complex results in an energy transfer to the APC and a fluorescence emission at 665 nm. The PIP3 product displaces biotin-PIP3 from the complex resulting in a loss of energy transfer and thus a decrease in signal.
To test for the ability of compounds to inhibit the activity of PI3Kα (wild-type), exemplary compounds of formula (I) were dissolved in DMSO and directly distributed into 384-well plates at a volume of 0.5 μL. 14.5 μL of P110/P85α/PIP2 mixture in buffer (obtained from the Millipore kit) containing MgCl2 (40 mM) and DTT (5 mM) was added to compound wells and incubated for 60 min at room temperature. P110/P85α was expressed in SF9 insect cells and purified nickel column extraction. Five ng of wild-type P110/P85α was used in the assay. The kinase reaction was started by the addition of ATP. The assay concentrations of both PIP2 and ATP were 10 μM. The reaction mixture was incubated for 30 min at room temperature and was terminated by the addition of stop mix and detection mix. Fluorescence was measured at 615 and 665 nm upon excitation at 340 nm in a Victor™ V5 fluorometer (Perkin Elmer, USA). The fluorescence emission ratio at 665 to 615 nm, proportional to the kinase activity, was plotted against the compound concentration to generate dose-response curves and IC50 values were determined using GraphPad Prism® 5 software.

mTOR kinase = molecular target: T2, mTOR kinase (Homo sapiens, UniProt P42345); test: mTOR kinase TR-FRET assay; assay type: biochemical; settings: read-out: mTO R
T2 construct: purchased Millipore, USA
Procedure: Compound inhibition for mTOR kinase was determined in a homogeneous TR-FRET assay using the Lance® ULight-p70 S6K (Thr 389) peptide (obtained from Perkin-Elmer). The ULight™-labeled synthetic peptide contains the amino acid residues surrounding Thr389 of human p70 S6K. The ULight-p70 S6K peptide is phosphorylated at Thr389 by mTOR. Phosphorylation motif: LGFTYVAP as substrate.
The compound dilution was carried out in 100% DMSO followed by a buffer dilution. The reaction buffer was HEPES (50 mM pH 7.5), EGTA (1 mM), MnCl2 (3 mM). Test compounds at various concentrations were pre-incubated with mTOR (Millipore, USA; 5 ng) for 60 min, and then the Lance® ULight-p70 S6K (Thr 389) peptide (50 nM) was added along with ATP (20 μM). After incubating the reaction mixture for 60 min at room temperature, the kinase reaction was terminated by the addition of EDTA (10 mM) followed by the addition of detection mix, i.e., 1 nM Eu-labeled anti-phospho-substrate antibody (Perkin Elmer, USA). The fluorescence emission at […] was measured upon excitation at 340 nm. IC50 values were subsequently determined using a sigmoidal dose-response curve (variable slope) in GraphPad Prism® 5 software.
Compounds of formula (I) caused inhibition of mTOR kinase activity as determined by this assay.

T1 sequence (P42336 whole entry): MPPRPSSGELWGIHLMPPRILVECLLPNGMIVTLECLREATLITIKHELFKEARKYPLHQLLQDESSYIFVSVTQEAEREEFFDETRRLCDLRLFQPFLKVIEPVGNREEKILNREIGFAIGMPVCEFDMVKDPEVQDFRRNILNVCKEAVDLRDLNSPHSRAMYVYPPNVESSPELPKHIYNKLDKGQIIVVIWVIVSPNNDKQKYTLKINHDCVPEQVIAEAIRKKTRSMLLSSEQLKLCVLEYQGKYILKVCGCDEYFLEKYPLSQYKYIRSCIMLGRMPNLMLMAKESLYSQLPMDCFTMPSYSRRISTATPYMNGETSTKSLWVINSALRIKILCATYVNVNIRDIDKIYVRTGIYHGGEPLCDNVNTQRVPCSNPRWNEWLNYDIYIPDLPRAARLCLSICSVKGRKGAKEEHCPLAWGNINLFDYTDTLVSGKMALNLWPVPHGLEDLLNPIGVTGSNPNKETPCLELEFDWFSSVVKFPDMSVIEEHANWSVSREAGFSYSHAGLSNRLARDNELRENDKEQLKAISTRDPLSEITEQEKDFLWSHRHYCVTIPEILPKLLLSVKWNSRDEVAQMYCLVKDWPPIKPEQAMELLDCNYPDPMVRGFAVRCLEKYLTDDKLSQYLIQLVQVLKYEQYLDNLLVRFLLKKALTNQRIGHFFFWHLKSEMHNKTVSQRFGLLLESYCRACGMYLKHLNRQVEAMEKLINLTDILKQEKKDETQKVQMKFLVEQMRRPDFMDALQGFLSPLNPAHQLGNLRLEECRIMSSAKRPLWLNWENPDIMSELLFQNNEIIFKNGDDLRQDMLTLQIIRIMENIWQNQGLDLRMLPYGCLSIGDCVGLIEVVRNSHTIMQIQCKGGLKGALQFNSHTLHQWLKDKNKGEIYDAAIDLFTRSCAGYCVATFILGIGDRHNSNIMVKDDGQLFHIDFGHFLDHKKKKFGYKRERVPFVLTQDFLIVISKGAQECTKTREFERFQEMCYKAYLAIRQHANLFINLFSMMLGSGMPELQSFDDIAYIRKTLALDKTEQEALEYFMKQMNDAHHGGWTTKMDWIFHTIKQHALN
T1 sequence (P27986 whole entry partner): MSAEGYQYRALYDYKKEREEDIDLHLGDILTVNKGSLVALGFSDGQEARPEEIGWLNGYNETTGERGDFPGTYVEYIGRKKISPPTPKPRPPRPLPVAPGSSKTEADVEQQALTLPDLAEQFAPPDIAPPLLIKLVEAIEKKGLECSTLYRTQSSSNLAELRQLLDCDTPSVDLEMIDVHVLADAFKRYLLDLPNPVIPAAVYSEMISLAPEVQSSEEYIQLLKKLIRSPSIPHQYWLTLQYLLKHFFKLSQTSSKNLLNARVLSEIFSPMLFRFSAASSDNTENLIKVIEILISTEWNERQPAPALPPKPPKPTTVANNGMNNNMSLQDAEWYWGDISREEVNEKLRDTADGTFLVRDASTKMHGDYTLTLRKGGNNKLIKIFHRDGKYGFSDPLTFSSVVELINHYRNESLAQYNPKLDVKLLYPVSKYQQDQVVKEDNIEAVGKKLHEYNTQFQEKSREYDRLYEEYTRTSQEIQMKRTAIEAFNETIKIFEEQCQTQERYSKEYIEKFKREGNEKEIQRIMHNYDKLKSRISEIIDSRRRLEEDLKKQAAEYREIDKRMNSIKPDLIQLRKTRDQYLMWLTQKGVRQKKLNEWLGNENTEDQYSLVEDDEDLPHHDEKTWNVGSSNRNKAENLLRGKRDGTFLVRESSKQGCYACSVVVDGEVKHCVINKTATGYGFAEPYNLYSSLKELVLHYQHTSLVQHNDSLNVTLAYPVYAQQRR

Row | SMILES | IC50 [1] | IC50 (mTOR kinase)
1 | CN(C)CCNC(=O)c1ccc2c(N3CCOCC3)nc(-c3ccc(NC(=O)Nc4ccc(C(=O)N(C)C)cc4)cc3)nc2c1 [Example 7, 2-[4-{3-(4-Dimethycarbamoyl-phenyl)-Ureido]-phenyl}-4-morpholin-4-yl-quinazoline-7-carboxylic acid (2-dimethylamino-ethyl)-amide] | 50 to 200 nM | < 50 nM
2 | Cc1ccc(-c2ccc3c(N4CCOCC4)nc(-c4ccc(NC(=O)Nc5ccc(C(=O)N(C)C)cc5)c(F)c4)nc3c2)o1 [Example 8, 4-(3-{2-Fluoro-4-[7-(5-methyl-furan-2-yl)-4-morpholin-4-yl-quinazolin-2-yl]-phenyl}ureido)dimethyl-benzamide] | 201 to 10000 nM | 50 to 200 nM
3 | CN(C)C(=O)c1ccc(NC(=O)Nc2ccc(-c3nc(N4CCOCC4)c4ccc(-c5ccc(C(=O)O)o5)cc4n3)cc2)cc1 [Example 10, 5-(2-(4-(3-(4-(dimethylcarbamoyl)phenyl)ureido)phenyl)-4-morpholino-quinazolin-7-yl)furan-2-carboxylic acid] | < 50 nM | < 50 nM
4 | CN1CCN(C(=O)c2ccc(-c3ccc4c(N5CCOCC5)nc(-c5ccc(NC(=O)Nc6ccc(C(=O)N(C)C)cc6)cc5)nc4c3)o2)CC1 [Example 11, N,N-dimethyl-4-(3-(4-(7-(5-(4-methylpiperazine-1-carbonyl)furan-2-yl)-4-morpholino-quinazolin-2-yl)phenyl)ureido)-benzamide] | < 50 nM | < 50 nM
5 | CN(C)C(=O)c1ccc(NC(=O)Nc2ccc(-c3nc(N4CCOCC4)c4ccc(-c5ccc(C#N)o5)cc4n3)c(F)c2)cc1 [Example 12, 4-(3-(4-(7-(5-cyanofuran-2-yl)-4-morpholino-quinazolin-2-yl)-3-fluorophenyl)ureido)-N,N-dimethyl-benzamide] | < 50 nM | < 50 nM

Next, values leading:

Row | IC50 [1] | IC50 (mTOR kinase) | SMILES
6 | 50 to 200 nM | 50 to 200 nM | Cc1noc(C)c1-c1ccc2c(N3CCOCC3)nc(-c3ccc(NC(=O)Nc4ccc(C(=O)N5CCC(N(C)C)C5)cc4)c(F)c3)nc2c1 (stereo in doubt) [Example 221, (S)-1-(4-(3-(dimethylamino)pyrrolidine-1-carbonyl)phenyl)-3-(4-(7-(3,5-dimethylisoxazol-4-yl)-4-morpholino-quinazolin-2-yl)-2-fluorophenyl)urea]
7 | < 50 nM | < 50 nM | CC(=O)c1ccc(-c2ccc3c(N4CCOCC4)nc(-c4ccc(NC(=O)Nc5ccc(C(=O)N(C)C)c(F)c5)cc4)nc3c2)o1 [Example 13, 4-(3-(4-(7-(5-acetylfuran-2-yl)-4-morpholino-quinazolin-2-yl)phenyl)ureido)-2-fluoro-N,N-dimethyl-benzamide]
8 | < 50 nM | < 50 nM | CN(C)C(=O)c1ccc(NC(=O)Nc2ccc(-c3nc(N4CCOCC4)c4ncc(-c5cnn(C)c5)cc4n3)c(F)c2F)cc1 [Example 14, 4-(3-(2,3-difluoro-4-(7-(1-methyl-1H-pyrazol-4-yl)-4-morpholino-pyrido[3,2-d]pyrimidin-2-yl)phenyl)ureido)-N,N-dimethyl-benzamide]
9 | < 50 nM | < 50 nM | CC(O)c1ccc(-c2cnc3c(N4CCOCC4)nc(-c4ccc(NC(=O)Nc5ccc(C(=O)N(C)C)cc5)c(F)c4)nc3c2)o1 (stereo not drawn) [Example 15, 4-(3-(2-fluoro-4-(7-(5-(1-hydroxyethyl)furan-2-yl)-4-morpholino-pyrido[3,2-d]pyrimidin-2-yl)phenyl)ureido)-N,N-dimethyl-benzamide]
10 | 201 to 10000 nM | < 50 nM | Cc1ccc(-c2ccc3c(N4CCOCC4)nc(-c4ccc(NC(=O)Nc5ccc(N6CCCC6=O)cc5)cc4)nc3c2)o1 [Example 18, 1-(4-(7-(5-methylfuran-2-yl)-4-morpholino-quinazolin-2-yl)phenyl)-3-(4-(2-oxopyrrolidin-1-yl)phenyl)urea]
11 |  | < 50 nM | O=C(Nc1ccc(-c2nc(N3CCOCC3)c3ccc(-c4cccnc4F)cc3n2)cc1)Nc1ccc(N2CCCC2=O)cc1 [Example 292, 1-(4-(7-(2-fluoropyridin-3-yl)-4-morpholinoquinazolin-2-yl)phenyl)-3-(4-(2-oxopyrrolidin-1-yl)phenyl)urea]
